{Cy5} = cyanine 5 fluorescent dye
Columns and labels:
[1] = system: U118-MG glioma cells; assay: Flow cytometry: entry of conjugates into U118-MG glioma cells in vitro; assay type: cell-based, human; details: for relative fluorescence difference R: R=(MFIAP1−MFICAP10)/MFICAP10; for mean fluorescence intensity (MFI): 1 h 37°C, yeast tRNA 100 μg/mL, flow cytometry
Procedure: U118MG cells were seeded into a 96-well plate at 5×10^5 cells/well. Conjugate AP1 prepared above and yeast tRNA were respectively formulated into conjugates solution 1A, 1B, 1C, 1D, 1E, 1F, 1G, 1H, and 1I with DMEM medium, and these conjugate solutions 1A-1I comprised yeast tRNA at a final concentration of 100 μg/mL and respectively comprised conjugate AP1 at final concentrations of 5 nM, 10 nM, 20 nM, 40 nM, 60 nM, 80 nM, 100 nM, 150 nM, 200 nM, and […].
Control conjugate comparative AP10 prepared above and yeast tRNA were respectively formulated into conjugates solution 1A′, 1B′, 1C′, 1D′, 1E′, 1F′, 1G′ 1H′, and 1I′ with DMEM medium, and these conjugate solutions 1A′-1I′ comprised yeast tRNA at a final concentration of 100 μg/mL and respectively comprised control conjugate comparative AP10 at final concentrations of 5 nM, 10 nM, 20 nM, 40 nM, 60 nM, 80 nM, 100 nM, 150 nM, 200 nM, and […].
The aforementioned culture wells containing U118MG cells were respectively added with the conjugate solutions 1A-1I above in an amount of 200 μL/well and designated as test group 1A-test group 1I. The aforementioned culture wells containing U118MG cells were respectively added with the conjugate solution 1A′-1I′ above in an amount of 200 μL/well and designated as control group 1A′-control group 1I′. Another culture well containing U118MG cells was added with 200 μL DMEM medium containing yeast tRNA at a final concentration of 100 μg/mL and designated as blank control group 1J. The 96-well plate containing the above test groups and the blank control group were incubated at 37° C. for 1 h in the dark; after incubation, the supernatant of the reaction mixture of each test group and the blank control group was aspirated, and DPBS buffer (purchased from Thermo Fisher) was added to wash the plate 3 times (100 μL each time). After the washing solution was aspirated, each culture well was added with 100 μL DMEM medium to obtain a cell suspension. The supernatant was removed by centrifugation and then 500 μL DPBS buffer was added to re-suspend the cells. Flow cytometry analysis was performed with flow cytometer (BD Biosciences): 10,000 cells in each test group or the blank control group were analyzed, the fluorescence intensity distribution was determined and the mean fluorescence intensity (MFI, a.u.) was calculated. Furthermore, the mean fluorescence intensity corresponding to each final concentration of conjugates is listed in Table 4 below for comparison, and the relative fluorescence difference R is calculated according to the following equation: R=(MFIAP1−MFICAP10)/MFICAP10.
Therein, MFIAP1 represents mean fluorescence intensity of conjugate AP1 in U118-MG glioma cells, and MFICAP10 represents mean fluorescence intensity of comparative AP10 in U118-MG glioma cells.

[2] = system: SVGp12 normal astrocytes; assay: High content imaging: entry of conjugates into SVGp12 normal astrocytes; assay type: cell-based, human; details: 100 nM, 30 min 37°C
Procedure: (§1) In this experiment, the entry of conjugate AP1 provided by the present disclosure and comparative conjugate comparative AP10 into different cells was observed by a PerkinElmer High Content Imaging system (Operatta).
(§2) U118MG glioma cells, SVGp12 normal astrocytes, T98G human brain glioma cells, U251 human glioma cells, A549 human non-small cell lung cancer cells, MCF-7 human breast cancer cells, and 293T human kidney epithelial cells were all purchased from the Shanghai Cell Bank of Chinese Academy of Sciences. […] The supernatant was aspirated and DPBS buffer (purchased from Thermo Fisher) was added to wash the plate 2 times (100 μL each time).
(§3) Conjugate AP1 prepared above and yeast tRNA were respectively formulated into conjugate solution 2A with DMEM medium, and the conjugate solution 2A comprised yeast tRNA at a final concentration of 100 μg/mL and conjugate AP1 at a final concentration of 100 nM. […]
(§4) Normalization was performed according to the mean fluorescence intensity of control group 2Y, that is, subtracting the mean fluorescence intensity of control group 2Y from the fluorescence intensity of test group 2X before performing imaging.

[3] = system: A549 human non-small cell lung cancer cells; assay: High content imaging: entry of conjugates into A549 cells; assay type: cell-based; details: 100 nM, 30 min 37°C
Procedure: as §1, §2, §3, §4

[4] = system: U118MG glioma tumor spheres; assay: High content imaging: entry into U118MG tumor spheres; assay type: cell-based, human; details: 100 nM, imaging without washing
Procedure: (§5) In this experiment, the entry of conjugate AP1 provided by the present disclosure and comparative conjugate comparative AP10 into U118MG glioma tumor spheres and A549 human non-small cell lung cancer tumor spheres was observed by a PerkinElmer High Content Imaging system (Operatta).
(§6) 80 μL fresh, sterilized and unsolidified 2% agarose was added into the culture wells of a 96-well plate. […] Half of the supernatant was aspirated every 48 h and fresh DMEM medium was added along the wall of the culture wells. After 7 days of culture, the cells were observed under the microscope to confirm that complete cell spheres were obtained, indicating successful tumor sphere cultivation.
(§7) Each culture well was added with AP1 or comparative AP10 according to the method of experimental Example 2, and imaged in a high content imaging system, with the only difference of directly performing imaging after culture without washing and performing imaging according to the measured fluorescence intensity of Cy5.

[5] = system: A549 human non-small cell lung cancer tumor spheres; assay: High content imaging: entry into A549 tumor spheres; assay type: cell-based; details: 100 nM, imaging without washing
Procedure: as §5, §6, §7

Substance: CY5-CfUfGGAGUfUfCfAGACfGUfGUfUfGCfUfCfUfUfCfCfGAUfCfUfCf (CUGGAGUUCAGACGUGUUGCUCUUCCGAUCUC; 2'-fluoro at CU, RNA at AG, 5' {Cy5}, backbone not given here) [AP1]
- relative fluorescence difference R ([1]; 5 nM): 9.37
- relative fluorescence difference R ([1]; 10 nM): 6.47
- relative fluorescence difference R ([1]; 20 nM): 5.18
- relative fluorescence difference R ([1]; 40 nM): 2.25
- relative fluorescence difference R ([1]; 60 nM): 2.53
- relative fluorescence difference R ([1]; 80 nM): 2.71
- relative fluorescence difference R ([1]; 100 nM): 1.88
- relative fluorescence difference R ([1]; 150 nM): 2.17
- relative fluorescence difference R ([1]; 200 nM): 3.23
- relative fluorescence difference R ([1]; 500 nM): 2.91
- mean fluorescence intensity compared with comparative AP10 ([1]; at different concentrations (5-500 nM)): significantly higher mean fluorescence intensity
- mean fluorescence intensity (MFI) ([1]; conjugate 5 nM): 263.4 a.u.
- mean fluorescence intensity (MFI) ([1]; conjugate 10 nM): 503.4 a.u.
- mean fluorescence intensity (MFI) ([1]; conjugate 20 nM): 1089.4 a.u.
- mean fluorescence intensity (MFI) ([1]; conjugate 40 nM): 1440.4 a.u.
- mean fluorescence intensity (MFI) ([1]; conjugate 60 nM): 2355.4 a.u.
- mean fluorescence intensity (MFI) ([1]; conjugate 80 nM): 2921.4 a.u.
- mean fluorescence intensity (MFI) ([1]; conjugate 100 nM): 3360.4 a.u.
- mean fluorescence intensity (MFI) ([1]; conjugate 150 nM): 3969.4 a.u.
- mean fluorescence intensity (MFI) ([1]; conjugate 200 nM): 7895.4 a.u.
- mean fluorescence intensity (MFI) ([1]; conjugate 500 nM): 15770.4 a.u.
- Cy5 fluorescence signal in cells [2]: did not show any fluorescence signal
- Cy5 fluorescence signal in cells [3]: strong Cy5 fluorescence signal
- Cy5 fluorescence signal in tumor spheres [4]: strong Cy5 fluorescence signal
- Cy5 fluorescence signal in tumor spheres [5]: strong Cy5 fluorescence signal
